Source: patent US20250243242A1, “LEVODOPA TYROSINE POLYMORPHS” (NeuroDerm, Ltd., priority 2022, published 2025)
Values after ≈ are worked out from the molar mass of the structure shown. Blank lines part the entries; values can stand above or below the molecule they belong to. Non-standard residues stand in square brackets, D forms with d. Residues, ends and D or L forms follow the SMILES beside them. Dopa = N[C@@H](Cc1ccc(O)c(O)c1)C(=O)O

Assays:
Type in all cases: physicochemical
[1] = solid form stability upon storage at ambient conditions
[2] = dynamic vapor sorption (DVS); conditions: for hygroscopicity, weight gained: between 40-80% RH; for hygroscopicity (in words): DVS, 40-80% RH
Method: Dynamic vapour sorption (DVS) was performed using a Hiden Analytical Instruments IGAsorp Vapour Sorption Balance. Approximately 30 mg of sample was placed into a wire-mesh vapour sorption balance pan, loaded into the IGAsorp vapour sorption balance and held at 25° C.±0.1° C. The sample was subjected to a step profile in 10% increments from 40-90% RH, followed by desorption from 90-0% RH and a second sorption cycle form 0-40% RH. The equilibrium criterion was set to 99.0% step completion within a minimum of 60 minutes and a maximum of 5 hours for each increment. The weight change during the sorption cycle was monitored, allowing for the hygroscopic nature of the sample to be determined. The data collection interval was in seconds.

[3] = aqueous solubility at various pH
[4] = physical stability at 75% RH and 40° C.
[5] = between about 40 to about 80% RH at 25° C.

form conversion upon storage [1]: converted to Form G
SMILES: N[C@@H](Cc1ccc(O)c(O)c1)C(=O)N[C@@H](Cc1ccc(O)cc1)C(=O)O [Form C, ((S)-2-amino-3-(3,4-dihydroxyphenyl)propanoyl)-L-tyrosine] (H-[Dopa]-Tyr-OH)

DVS reversable total mass change ([2]; between about 0 to about 90% RH at 25° C.): about 8 wt. %
form conversion upon storage [1]: converted to Form B
SMILES: N[C@@H](Cc1ccc(O)c(O)c1)C(=O)N[C@@H](Cc1ccc(O)cc1)C(=O)O [Form E, ((S)-2-amino-3-(3,4-dihydroxyphenyl)propanoyl)-L-tyrosine] (H-[Dopa]-Tyr-OH)

hygroscopicity, weight gained [2]: 2.6 % w/w
DVS reversable total mass change [2, 5]: about 2.6 wt. %
SMILES: N[C@@H](Cc1ccc(O)c(O)c1)C(=O)N[C@@H](Cc1ccc(O)cc1)C(=O)O [Form G, ((S)-2-amino-3-(3,4-dihydroxyphenyl)propanoyl)-L-tyrosine] (H-[Dopa]-Tyr-OH)

hygroscopicity (in words) [2]: hygroscopic
solid form by XRPD following DVS cycling ([2]; XRPD after DVS cycling): converted to Pattern N material
DVS reversable total mass change [2, 5]: about 4.19 wt. %
SMILES: N[C@@H](Cc1ccc(O)c(O)c1)C(=O)N[C@@H](Cc1ccc(O)cc1)C(=O)O [amorphous form, ((S)-2-amino-3-(3,4-dihydroxyphenyl)propanoyl)-L-tyrosine] (H-[Dopa]-Tyr-OH)

The remaining lines, values behind:

SMILES: N[C@@H](Cc1ccc(O)c(O)c1)C(=O)N[C@@H](Cc1ccc(O)cc1)C(=O)O [Form D, ((S)-2-amino-3-(3,4-dihydroxyphenyl)propanoyl)-L-tyrosine] (H-[Dopa]-Tyr-OH)
form conversion upon storage [1]: converted to Form N

SMILES: N[C@@H](Cc1ccc(O)c(O)c1)C(=O)N[C@@H](Cc1ccc(O)cc1)C(=O)O [Form N, ((S)-2-amino-3-(3,4-dihydroxyphenyl)propanoyl)-L-tyrosine] (H-[Dopa]-Tyr-OH)
solubility ([3]; aqueous medium, pH 3.27, aqueous buffer, pH of about 3.27): ~2860 µg/mL (≈ 7.94 mM)
solubility ([3]; aqueous medium, pH 3.83, aqueous buffer, pH of about 3.83): ~1640 µg/mL (≈ 4.55 mM)
solubility ([3]; aqueous medium, pH 3.92, aqueous buffer, pH of about 3.92): ~1540 µg/mL (≈ 4.27 mM)
solubility ([3]; aqueous medium, pH 4.68, aqueous buffer, pH of about 4.68): ~1330 µg/mL (≈ 3.69 mM)
solubility ([3]; aqueous medium, pH 5, aqueous buffer, pH of about 5.00): ~1290 µg/mL (≈ 3.58 mM)
solubility ([3]; aqueous medium, pH 6.04, aqueous buffer, pH of about 6.04): ~1370 µg/mL (≈ 3.8 mM)
solubility ([3]; aqueous solution, pH 1.17, simulated gastric fluid, pH of about 1.17): ~184000 µg/mL (≈ 512 mM)
solubility ([3]; aqueous solution, pH 2.6, aqueous buffer, pH of about 2.60): ~9460 µg/mL (≈ 26.3 mM)
solubility ([3]; aqueous solution, pH 3, aqueous buffer, pH of about 3.00): ~4060 µg/mL (≈ 11.3 mM)
solubility ([3]; aqueous solution, pH 6.78, aqueous buffer, pH of about 6.78): ~510 µg/mL (≈ 1.42 mM)
solubility ([3]; aqueous solution, pH 7.56, aqueous buffer, pH of about 7.56): ~18900 µg/mL (≈ 52.3 mM)
solubility ([3]; aqueous solution, pH 8.69, aqueous buffer, pH of about 8.69): ~111000 µg/mL (≈ 309 mM)
solubility ([3]; aqueous solution, pH 9.43, aqueous buffer, pH of about 9.43): ~58700 µg/mL (≈ 163 mM)
solubility ([3]; aqueous solution, pH 10.26, aqueous buffer, pH of about 10.26): ~155000 µg/mL (≈ 431 mM)
hydrate stability, water loss at low RH ([2]; DVS analysis, compared with Form G): more stable hydrate
hygroscopicity (in words) [2]: less hygroscopic
hygroscopicity, weight gained [2]: 0.6 % w/w
DVS reversable total mass change [2, 5]: about 0.6 wt. %
physical stability [4]: physically stable
